According to PubChem BioAssay (NCI):
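All cell lines were grown in 96-well plates and treated with compound for 48 hours. At the GI50, growth is halved. TGI is the concentration that stops growth completely.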

Key:
Assay in all cases: inhibition of tumour cell growth, NCI panel, 48 h
SF-539 CNS = system: SF-539 CNS
LOX IMVI melanoma = system: LOX IMVI melanoma
NCI-H23 lung = system: NCI-H23 lung
SNB-75 CNS = system: SNB-75 CNS
RPMI-8226 leukemia = system: RPMI-8226 leukemia
EKVX NSCLC = system: EKVX NSCLC
HL-60(TB) leukemia = system: HL-60(TB) leukemia
KM12 colon = system: KM12 colon
MALME-3M melanoma = system: MALME-3M melanoma
M14 melanoma = system: M14 melanoma

**Q.** `Cn1ccc(=Nc2ccc(NC(=O)c3ccc(N=c4ccn(C)c5ccc([N+](=O)[O-])cc45)cc3)cc2)cc1` was tested. Which GI50 (SF-539 CNS) did it give?
**A.** 6210 nM

**Q.** What about the TGI (SF-539 CNS) of the same molecule?
**A.** 73200 nM

**Q.** What about the GI50 (LOX IMVI melanoma) of the same molecule?
**A.** 5370 nM

**Q.** And the TGI (LOX IMVI melanoma)?
**A.** > 100000 nM

**Q.** And the GI50 (NCI-H23 lung)?
**A.** 43900 nM

**Q.** What about the TGI (NCI-H23 lung) of the same molecule?
**A.** > 100000 nM

**Q.** And the GI50 (SNB-75 CNS)?
**A.** 3630 nM

**Q.** What about the TGI (SNB-75 CNS) of the same molecule?
**A.** 28500 nM

**Q.** What about the GI50 (RPMI-8226 leukemia) of the same molecule?
**A.** 3540 nM

**Q.** What about the TGI (RPMI-8226 leukemia) of the same molecule?
**A.** > 100000 nM

**Q.** What about the GI50 (EKVX NSCLC) of the same molecule?
**A.** 55100 nM

**Q.** What about the TGI (EKVX NSCLC) of the same molecule?
**A.** > 100000 nM

**Q.** And the GI50 (HL-60(TB) leukemia)?
**A.** 5340 nM

**Q.** And the TGI (HL-60(TB) leukemia)?
**A.** > 100000 nM

**Q.** And the GI50 (KM12 colon)?
**A.** 7260 nM

**Q.** And the TGI (KM12 colon)?
**A.** > 100000 nM

**Q.** What about the GI50 (MALME-3M melanoma) of the same molecule?
**A.** 2410 nM

**Q.** And the TGI (MALME-3M melanoma)?
**A.** 37900 nM

**Q.** And the GI50 (M14 melanoma)?
**A.** > 100000 nM

**Q.** What about the TGI (M14 melanoma) of the same molecule?
**A.** > 100000 nM

**Q.** How did the TGI (SF-539 CNS) turn out when `C/C(=N\NC(=O)CC(=O)Nc1ccc(Cl)cc1)c1cc2ccccc2oc1=O` was run?
**A.** > 100000 nM

**Q.** What about the TGI (LOX IMVI melanoma) of the same molecule?
**A.** > 100000 nM

**Q.** What about the TGI (NCI-H23 lung) of the same molecule?
**A.** > 100000 nM

**Q.** And the TGI (SNB-75 CNS)?
**A.** > 100000 nM

**Q.** What about the TGI (RPMI-8226 leukemia) of the same molecule?
**A.** > 100000 nM

**Q.** And the TGI (EKVX NSCLC)?
**A.** > 100000 nM

**Q.** What about the TGI (HL-60(TB) leukemia) of the same molecule?
**A.** > 100000 nM

**Q.** What about the TGI (KM12 colon) of the same molecule?
**A.** > 100000 nM

**Q.** What about the TGI (MALME-3M melanoma) of the same molecule?
**A.** > 100000 nM

**Q.** And the TGI (M14 melanoma)?
**A.** > 100000 nM

**Q.** Which GI50 (SF-539 CNS) does the source give for `COc1cc2c3c(n(CCN)c(=O)c2cc1OC)-c1cc2c(cc1C3=O)OCO2` here?
**A.** 766 nM

**Q.** What about the TGI (SF-539 CNS) of the same molecule?
**A.** 2740 nM

**Q.** And the GI50 (LOX IMVI melanoma)?
**A.** 235 nM

**Q.** And the GI50 (NCI-H23 lung)?
**A.** 78.8 nM

**Q.** What about the TGI (NCI-H23 lung) of the same molecule?
**A.** 1060 nM

**Q.** What about the GI50 (SNB-75 CNS) of the same molecule?
**A.** 143 nM

**Q.** And the TGI (SNB-75 CNS)?
**A.** 2430 nM

**Q.** What about the GI50 (RPMI-8226 leukemia) of the same molecule?
**A.** < 15.9 nM

**Q.** What about the TGI (RPMI-8226 leukemia) of the same molecule?
**A.** 303 nM

**Q.** What about the GI50 (EKVX NSCLC) of the same molecule?
**A.** 1590 nM

**Q.** And the TGI (EKVX NSCLC)?
**A.** 3970 nM

**Q.** What about the TGI (HL-60(TB) leukemia) of the same molecule?
**A.** > 100000 nM

**Q.** What about the GI50 (KM12 colon) of the same molecule?
**A.** 235 nM

**Q.** What about the TGI (KM12 colon) of the same molecule?
**A.** 1510 nM

**Q.** And the GI50 (MALME-3M melanoma)?
**A.** 240 nM

**Q.** And the TGI (MALME-3M melanoma)?
**A.** 6120 nM

**Q.** What about the GI50 (M14 melanoma) of the same molecule?
**A.** < 18.5 nM

**Q.** And the TGI (M14 melanoma)?
**A.** 1410 nM

**Q.** How did the GI50 (SF-539 CNS) turn out when `CCCCCCCCOc1ccc(/C=N/Nc2cc(C)nc3ccc(Cl)cc23)cc1` was run?
**A.** 1860 nM

**Q.** What about the TGI (SF-539 CNS) of the same molecule?
**A.** 3290 nM

**Q.** What about the GI50 (LOX IMVI melanoma) of the same molecule?
**A.** 1660 nM

**Q.** And the TGI (LOX IMVI melanoma)?
**A.** 3170 nM

**Q.** And the GI50 (NCI-H23 lung)?
**A.** 1900 nM

**Q.** And the TGI (NCI-H23 lung)?
**A.** 3840 nM

**Q.** What about the GI50 (SNB-75 CNS) of the same molecule?
**A.** 1860 nM

**Q.** And the TGI (SNB-75 CNS)?
**A.** 3490 nM

**Q.** What about the GI50 (RPMI-8226 leukemia) of the same molecule?
**A.** 2010 nM

**Q.** And the TGI (RPMI-8226 leukemia)?
**A.** 4630 nM

**Q.** And the GI50 (EKVX NSCLC)?
**A.** 1800 nM

**Q.** What about the TGI (EKVX NSCLC) of the same molecule?
**A.** 3330 nM

**Q.** What about the GI50 (HL-60(TB) leukemia) of the same molecule?
**A.** 2000 nM

**Q.** What about the TGI (HL-60(TB) leukemia) of the same molecule?
**A.** 4460 nM

**Q.** And the GI50 (KM12 colon)?
**A.** 1850 nM

**Q.** And the TGI (KM12 colon)?
**A.** 3440 nM

**Q.** And the GI50 (MALME-3M melanoma)?
**A.** 1850 nM

**Q.** And the TGI (MALME-3M melanoma)?
**A.** 3360 nM

**Q.** What about the GI50 (M14 melanoma) of the same molecule?
**A.** 1750 nM

**Q.** And the TGI (M14 melanoma)?
**A.** 3510 nM

**Q.** For `O=C1c2cccnc2-c2nc(/C=C/c3ccccc3)cc3c2c1nc1ccccc13`, which GI50 (SF-539 CNS) is on record?
**A.** 3020 nM

**Q.** What about the TGI (SF-539 CNS) of the same molecule?
**A.** 7770 nM

**Q.** What about the GI50 (LOX IMVI melanoma) of the same molecule?
**A.** 2760 nM

**Q.** And the TGI (LOX IMVI melanoma)?
**A.** 6920 nM

**Q.** And the GI50 (NCI-H23 lung)?
**A.** 1600 nM

**Q.** And the TGI (NCI-H23 lung)?
**A.** 3580 nM

**Q.** What about the GI50 (SNB-75 CNS) of the same molecule?
**A.** 2000 nM

**Q.** And the TGI (SNB-75 CNS)?
**A.** 8060 nM

**Q.** And the GI50 (RPMI-8226 leukemia)?
**A.** 1200 nM

**Q.** And the TGI (RPMI-8226 leukemia)?
**A.** 5120 nM

**Q.** What about the GI50 (EKVX NSCLC) of the same molecule?
**A.** 2820 nM

**Q.** And the TGI (EKVX NSCLC)?
**A.** 14000 nM

**Q.** And the GI50 (HL-60(TB) leukemia)?
**A.** 1790 nM

**Q.** And the TGI (HL-60(TB) leukemia)?
**A.** 7970 nM

**Q.** And the GI50 (KM12 colon)?
**A.** 1780 nM

**Q.** And the TGI (KM12 colon)?
**A.** 5040 nM

**Q.** What about the GI50 (MALME-3M melanoma) of the same molecule?
**A.** 5010 nM

**Q.** What about the TGI (MALME-3M melanoma) of the same molecule?
**A.** 20500 nM

**Q.** What about the GI50 (M14 melanoma) of the same molecule?
**A.** 1730 nM

**Q.** What about the TGI (M14 melanoma) of the same molecule?
**A.** 3580 nM

**Q.** For `CC[N+](CC)=c1ccc2nc3c(cc(NCc4ccccc4)c4ccccc43)oc-2c1`, which GI50 (SF-539 CNS) is on record?
**A.** 4190 nM

**Q.** What about the TGI (SF-539 CNS) of the same molecule?
**A.** 21200 nM

**Q.** And the GI50 (LOX IMVI melanoma)?
**A.** 127 nM

**Q.** What about the TGI (LOX IMVI melanoma) of the same molecule?
**A.** 299 nM

**Q.** And the GI50 (NCI-H23 lung)?
**A.** 148 nM

**Q.** And the TGI (NCI-H23 lung)?
**A.** 352 nM

**Q.** And the GI50 (SNB-75 CNS)?
**A.** 385 nM

**Q.** What about the TGI (SNB-75 CNS) of the same molecule?
**A.** 808 nM

**Q.** What about the GI50 (RPMI-8226 leukemia) of the same molecule?
**A.** 94.9 nM

**Q.** What about the TGI (RPMI-8226 leukemia) of the same molecule?
**A.** 539 nM

**Q.** And the GI50 (EKVX NSCLC)?
**A.** 159 nM

**Q.** What about the TGI (EKVX NSCLC) of the same molecule?
**A.** 944 nM

**Q.** What about the GI50 (HL-60(TB) leukemia) of the same molecule?
**A.** 209 nM

**Q.** And the TGI (HL-60(TB) leukemia)?
**A.** 1110 nM

**Q.** What about the GI50 (KM12 colon) of the same molecule?
**A.** 292 nM

**Q.** What about the TGI (KM12 colon) of the same molecule?
**A.** 1320 nM

**Q.** What about the GI50 (MALME-3M melanoma) of the same molecule?
**A.** 172 nM

**Q.** And the TGI (MALME-3M melanoma)?
**A.** 358 nM

**Q.** What about the GI50 (M14 melanoma) of the same molecule?
**A.** 273 nM

**Q.** What about the TGI (M14 melanoma) of the same molecule?
**A.** 750 nM
